# Where “and” joins values, the source holds several entries; their conditions need not be identical. Equal values may be shown once.
# Experiments:
# [1] = Miscibility of alkyl ketal esters with water and organic compounds; type: physicochemical; conditions: for dissolves or is miscible with organic compounds to the extent of: organic compounds as listed in the block (alcohols, esters, oils, solvents), 80 parts of the ketal
# Method: Unless stated otherwise, miscibility is assessed at 25° C.
# [2] = Clarity of model hand sanitizer (isopropyl myristate / water / ethanol / ethyl-LGK); type: physicochemical
# Text: Thus, a formulation with 30 parts isopropyl myristate, 10 parts water, and 60 parts ethanol was cloudy. […] In either case, the potential for dryness increases due to reduction in emollient or increase in ethanol. […] This formulation retained the balance of emollient and ethanol, while still providing hydration through the presence of water. Alternatively, a portion of the ethanol can be replaced with Et-LGK without sacrificing clarity, even at higher water levels. […] This reduced ethanol formulation was less drying.
# [3] = Three-component miscibility test (mixing in a vial at room temperature and shaking, visual clarity)
# Text: The term “miscible” and its variations (“miscibility”, “compatibility”, and the like) are used herein as a synonym for “soluble”, i.e., a mixture of the materials by themselves form a “true” solution, in which one material is molecularly dispersed in the other, or in which one material is dispersed as droplets which have a longest dimension of less than 200 nm, such that the mixture is optically clear. […] A fully miscible alkyl ketal ester is soluble in another material, such as water, at all proportions from 99:1 to 1:99. A partially miscible alkyl ketal ester is immiscible in another material in proportions from greater than 30 parts of the alkyl ketal ester in 70 parts or less of the other material and miscible in other combinations. A sparingly miscible alkyl ketal ester is immiscible in another material or miscible in another material to the extent of less than 10 parts in 90 parts of the other material. […] Unless stated otherwise, miscibility is assessed at 25° C. […] By “macroscopically uniform,” it is meant that the formulation is uniform when viewed at a length scale of at least 10 micrometers.
# In these tests, clear mixtures as observed without magnification from a distance of, e.g., 0.3 meters are considered to be “miscible,” whereas cloudy or phase separated mixtures are considered to be “immiscible.” […]
# Three-component mixtures of ethyl-LGK, ethanol, and avobenzone were prepared by mixing the materials at various proportions at room temperature in a vial and shaking. […]
# Three-component mixtures of ethyl-LGK, water, and oxybenzone were prepared by mixing the materials at various proportions at room temperature in a vial and shaking. […]
# Three-component mixtures of Et-LGK, water, and phenoxyethanol were prepared by mixing the materials at various proportions at room temperature in a vial and shaking.
# Three-component mixtures of N,N-diethyl-m-toluamide (DEET), ethyl-LGK, and water were prepared by mixing the materials at various proportions at room temperature in a vial and shaking.
# [4] = Solubility of active agents in neat alkyl ketal esters (dissolution, storage at room temperature); conditions: for % solids dissolved in Et-LGK with heat, no precipitation / % solids in Et-LGK that did not (completely) dissolve or precipitated at room temperature / % solids dissolved in Et-LGK at room temperature, no precipitation: solvent Et-LGK; for % solids dissolved in Et-LGK with heat, no precipitation: dissolved at 35-80° C.; for % solids dissolved in Et-LGK with heat, no precipitation / % solids dissolved in Et-LGK at room temperature, no precipitation: still soluble after storage at room temperature (24 hours to 5 days) where stated; for % solids in Et-LGK that did not (completely) dissolve or precipitated at room temperature: partially dissolved or precipitated on room temperature storage; for % solids in Et-LPK that did not (completely) dissolve or precipitated at room temperature: not completely dissolved or precipitated on room temperature storage; for % solids dissolved in Bu-LGK with heat, no precipitation: dissolved at 50-80° C., still soluble after 24 hours at room temperature where stated
# [5] = Solubility of oxidation dye intermediates in hair dye bases (saturated solutions, UV-Vis); conditions: 27° C., 10 minutes
smiles,measurement,setting,value
CCOC(=O)CCC1(C)OCC(CO)O1 (stereo not drawn) [ethyl-LGK],miscible with water,[1]; 25° C. unless stated otherwise,in all proportions
same,dissolves or is miscible with organic compounds to the extent of,[1],at least 20 parts of the organic compound in 80 parts
CCOC(=O)CCC1(C)OCC(C)O1 (stereo not drawn) [ethyl-LPK],miscible in water to the extent of,[1]; 25° C. unless stated otherwise,2.5 parts in 97.5 parts of water
same,dissolves or is miscible with organic compounds to the extent of,[1],at least 20 parts of the organic compound in 80 parts
CCCCCCCCCCCCCC(=O)OC(C)C [isopropyl myristate],clarity of formulation,"[2]; 27 parts isopropyl myristate, 9 parts of water, 9 parts of ethyl-LGK and 55 parts of ethanol",clear solution
same,clarity of formulation,"[2]; 30 parts isopropyl myristate, 5 parts water, 5 parts ethyl-LGK and 60 parts ethanol",clear solution
same,clarity of formulation,"[2]; 30 parts isopropyl myristate, 10 parts water, 60 parts ethanol",cloudy
same,clarity of formulation,"[2]; no ketal, emollient level dropped to 22% at the same water level, or to 27% with an increase in ethanol",clear solution
"COC(=O)c1ccc(O)cc1 [methyl paraben, Methyl paraben]",level at which by itself immiscible in water,[3]; no ketal,1 % by weight
COC(=O)CCC1(C)OCC(CO)O1 (stereo not drawn) [methyl-LGK],Result (miscibility of ketal with water),"[3]; 50.0% ketal / 50.0% water, no oxybenzone",Miscible
same,miscible with water,[1]; 25° C. unless stated otherwise,in all proportions
CCCCOC(=O)CCC1(C)OCC(CO)O1 (stereo not drawn) [n-butyl-LGK],miscible with water to the extent of,[1]; 25° C. unless stated otherwise,1 part per 99 parts water
same,dissolves or is miscible with organic compounds to the extent of,[1],at least 20 parts of the organic compound in 80 parts
CCCCOC(=O)CCC1(C)OCC(C)O1 (stereo not drawn) [n-butyl-LPK],miscible with water to the extent of,[1]; 25° C. unless stated otherwise,about 1 part per 99 parts water
same,dissolves or is miscible with organic compounds to the extent of,[1],at least 20 parts of the organic compound in 80 parts
CCCOC(=O)CCC1(C)OCC(CO)O1 (stereo not drawn) [n-propyl-LGK],miscible with water to the extent of,[1]; 25° C. unless stated otherwise,1 part per 99 parts water
"CCCCC(CC)COC(=O)C=Cc1ccc(OC)cc1 (stereo not drawn) [octyl methoxycinnamate, Ethylhexyl methoxy cinnamate]",50/50 mixture with Bu-LGK,[4]; room temperature,soluble
same,50/50 mixture with Et-LGK,[4]; room temperature where stated,soluble
same,50/50 mixture with Et-LPK,[4]; room temperature where stated,soluble
"COc1ccc(C(=O)c2ccccc2)c(O)c1 [oxybenzone, Oxybenzone]",maximum solubility in propyl-LGK,[3],10-18%
same,upper limit of solubility in ethanol,[3],6.5-10%
same,concentration achieved in a solution,[3]; Et-AcAc-GK as a cosolvent (with water),≤ 29%
same,concentration achieved in an ethanolic solution,[3]; Et-LEK as a cosolvent,≤ 30%
same,concentration achieved in a solution,[3]; Methyl-LGK as a cosolvent (with water),≤ 10%
same,concentration achieved in a solution,[3]; alkyl ketal solvent mixture (Et-LGK and Et-LPK 80/20) as a cosolvent (with water),≤ 20%
same,concentration achieved in a water solution,[3]; ethyl-LGK as a cosolvent,≤ 13%
same,concentration achieved in an ethanolic solution,[3]; ethyl-LGK as a cosolvent,≤ 17%
same,concentration achieved in an ethanolic solution,[3]; ethyl-LPK as a cosolvent,≤ 28%
same,level at which by itself immiscible in ethanol,[3]; no ketal,10 % by weight
same,level at which by itself immiscible in water,[3]; no ketal,1 % by weight
same,"% solids dissolved in LEK with heat, no precipitation",[4]; after 2 weeks at room temperature,37.5%
same,% solids that did not dissolve in ACAc-GK,[4]; room temperature,31.9%
same,% solids that did not dissolve in methyl-LGK,[4]; room temperature,14.9%
same,% solids that did not dissolve in propyl-LGK,[4]; room temperature,17.8%
same,"% solids dissolved in Bu-LGK at room temperature, no precipitation","[4]; solvent Bu-LGK, still soluble after 24 hours / 1 day at room temperature",10%
same,% solids dissolved in Et-LEK at room temperature,[4]; solvent Et-LEK,28.5%
same,"% solids dissolved in Et-LGK with heat, no precipitation",[4],20%
same,% solids in Et-LGK that did not (completely) dissolve or precipitated at room temperature,[4]; insoluble,25%
same,"% solids dissolved in Et-LGK at room temperature, no precipitation",[4],10% and 18%
same,"% solids dissolved in Et-LPK with heat, no precipitation","[4]; solvent Et-LPK, dissolved at 50-80° C. or with heat, still soluble after storage at room temperature (24 hours to 5 days)",30%
same,% solids in Et-LPK that did not (completely) dissolve or precipitated at room temperature,"[4]; solvent Et-LPK, insoluble",40%
Nc1ccc(N)cc1 [p-phenylenediamine],"Average Solubility % wt./wt., column 26B","[5]; hair dye base with 7.00% Et-LGK, pH 8.5",0.07 % wt./wt.
same,"Average Solubility % wt./wt., column 26A","[5]; hair dye base with 7.00% Et-LGK, pH 10.2",0.07 % wt./wt.
same,"Average Solubility % wt./wt., column 27B","[5]; hair dye base with 7.00% Et-LPK, pH 8.5",<0.01 % wt./wt.
same,"Average Solubility % wt./wt., second column headed 26A","[5]; hair dye base with 7.00% Et-LPK, pH 10.2",0 % wt./wt.
same,"% solids dissolved in Bu-LGK with heat, no precipitation",[4]; solvent Bu-LGK,5%
same,% solids in Bu-LGK that did not (completely) dissolve,"[4]; solvent Bu-LGK, insoluble, dispersion or partially dissolved",25%
same,"% solids dissolved in Et-LGK with heat, no precipitation",[4],5%
same,% solids in Et-LPK that did not (completely) dissolve or precipitated at room temperature,"[4]; solvent Et-LPK, insoluble",5% and 1%
"OCCOc1ccccc1 [phenoxyethanol, Phenoxyethanol]",amount dissolved / solubilized by Et-LGK/water cosolvent mixtures,[3],~50 % by weight
"CCCOC(=O)c1ccc(O)cc1 [propyl paraben, Propyl paraben]",level of miscibility in Et-LGK by itself,[3],≤ 24%
same,level at which by itself immiscible in water,[3]; no ketal,< 1 % by weight
"O=C(O)c1ccccc1O [salicylic acid, Salicylic acid]","% solids dissolved in Bu-LGK with heat, no precipitation",[4]; solvent Bu-LGK,10%
same,% solids in Et-LGK that did not (completely) dissolve or precipitated at room temperature,[4]; insoluble,20.8%
same,"% solids dissolved in Et-LGK at room temperature, no precipitation",[4],15%
same,% solids in Et-LPK that did not (completely) dissolve or precipitated at room temperature,"[4]; solvent Et-LPK, insoluble",14.3%
same,"% solids dissolved in Et-LPK at room temperature, no precipitation","[4]; solvent Et-LPK, still soluble after 24 hours / 1 day at room temperature where stated",11%
